Source: PubChem BioAssay AID328 (DTP/NCI, 2004)
Several values for one entry are separate records, joined by “and”; a condition that tells them apart may be missing. Equal values may be shown once. Inconclusive results and toxic doses are left out. Rule for the calls: active = survival T/C of 150% or more; inactive = T/C below 125% in these data.

System: BDF1 mice, P388 leukemia ip, median survival T/C
Assay: NCI In Vivo Anticancer Drug Screen. Data for tumor model P388 Leukemia (intraperitoneal) in B6D2F1 (BDF1) mice
Settings: endpoint: median survival time, higher = longer survival
How it was run: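 Read-out is survival of treated animals expressed relative to the vehicle group, as a T/C ratio.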

[1] = dose: 200.0 mg/kg/injection, schedule: Q04DX003 (ip), vehicle: saline
[2] = dose: 400.0 mg/kg/injection, schedule: Q04DX003 (ip), vehicle: saline
[3] = dose: 50.0 mg/kg/injection, schedule: Q01DX009 (ip), vehicle: saline with Tween-80
[4] = dose: 100.0 mg/kg/injection, schedule: Q01DX009 (ip), vehicle: saline with Tween-80
[5] = dose: 200.0 mg/kg/injection, schedule: Q01DX009 (ip), vehicle: saline with Tween-80
[6] = dose: 12.5 mg/kg/injection, schedule: Q01DX009 (ip), vehicle: saline
[7] = dose: 25.0 mg/kg/injection, schedule: Q01DX009 (ip), vehicle: saline
[8] = dose: 25.0 mg/kg/injection, schedule: Q04DX003 (ip), vehicle: saline
[9] = dose: 50.0 mg/kg/injection, schedule: Q04DX003 (ip), vehicle: saline
[10] = dose: 50.0 mg/kg/injection, schedule: Q01DX009 (ip), vehicle: saline
[11] = dose: 200.0 mg/kg/injection, schedule: Q01DX009 (ip), vehicle: Klucel (hydroxypropylcellulose) (HPC)
[12] = dose: 100.0 mg/kg/injection, schedule: Q04DX003 (ip), vehicle: saline with Tween-80

Measured: T/C

CN1CCC2=C(C1)C(N1CCCCC1)CS(=O)(=O)O2 (stereo not given)
inactive: dose: 25.0 mg/kg/injection, schedule: Q04DX002 (ip), vehicle: saline 93 % of control | dose: 50.0 mg/kg/injection, schedule: Q04DX002 (ip), vehicle: saline 97 % of control | dose: 100.0 mg/kg/injection, schedule: Q04DX002 (ip), vehicle: saline with Tween-80 93 % of control

O=C1CCC(=O)C12CCNCC2
inactive: dose: 100.0 mg/kg/injection, schedule: Q04DX003 (ip), vehicle: saline 100 % of control | [1] 100 % of control | [2] 109 % of control

O=C1C(=C2CCCCC2)SC(=S)N1c1ccccc1
inactive: [3] 106 % of control | [4] 103 % of control | [5] 103 % of control

COc1cc2c(cc1OC)C(CCN1C(=O)c3ccccc3C1=O)=NCC2
inactive: [6] 91 % of control | [7] 87 % of control | [8] 100 % of control | [9] 95 % of control

CNC(C)Cc1ccccc1OC (stereo not given)
inactive: [6] 89 % of control | [7] 89 % of control | [8] 88 % of control | [10] 92 % of control | [9] 92 % of control

COc1cc(C)c(C2NC(=O)c3ccccc3N2)cc1C (stereo not given)
active: [11] 155 % of control and 170 % of control | dose: 265.0 mg/kg/injection, schedule: Q01DX009 (ip), vehicle: Klucel (hydroxypropylcellulose) (HPC) 150 % of control

CC1(C)N=C(N)N=C(N)N1c1cccc(CCCCc2ccc(S(=O)(=O)F)cc2)c1
inactive: dose: 2.75 mg/kg/injection, schedule: Q01DX009 (ip), vehicle: saline 120 % of control
active: dose: 8.25 mg/kg/injection, schedule: Q01DX009 (ip), vehicle: saline 150 % of control | dose: 18.75 mg/kg/injection, schedule: Q01DX009 (ip), vehicle: saline 150 % of control

O=[N+]([O-])c1ccc(N(CCO)CCO)c2c1no[n+]2[O-]
active: dose: 32.0 mg/kg/injection, schedule: Q04DX003 (ip), vehicle: saline with Tween-80 160 % of control
inactive: dose: 7.5 mg/kg/injection, schedule: Q01DX009 (ip), vehicle: saline with Tween-80 112 % of control | dose: 15.0 mg/kg/injection, schedule: Q01DX009 (ip), vehicle: saline with Tween-80 112 % of control | dose: 30.0 mg/kg/injection, schedule: Q01DX009 (ip), vehicle: saline with Tween-80 113 % of control | dose: 64.0 mg/kg/injection, schedule: Q04DX003 (ip), vehicle: saline with Tween-80 121 % of control

O=[N+]([O-])C(Cl)(Cl)C(Cl)(Cl)[N+](=O)[O-]
inactive: dose: 1.25 mg/kg/injection, schedule: Q01DX009 (ip), vehicle: other 100 % of control | dose: 2.5 mg/kg/injection, schedule: Q01DX009 (ip), vehicle: other 100 % of control | dose: 2.5 mg/kg/injection, schedule: Q04DX003 (ip), vehicle: other 87 % of control | dose: 5.0 mg/kg/injection, schedule: Q01DX009 (ip), vehicle: other 95 % of control | dose: 5.0 mg/kg/injection, schedule: Q04DX003 (ip), vehicle: other 104 % of control

O=C1c2ccccc2C(=O)N1c1cc(O)cc(O)c1
inactive: dose: 1.0 mg/kg/injection, schedule: Q01DX009 (ip), vehicle: water 109 % of control | dose: 2.0 mg/kg/injection, schedule: Q01DX009 (ip), vehicle: water 113 % of control | dose: 4.0 mg/kg/injection, schedule: Q01DX009 (ip), vehicle: water 95 % of control and 98 % of control and 105 % of control | dose: 8.0 mg/kg/injection, schedule: Q01DX009 (ip), vehicle: water 90 % of control and 95 % of control | dose: 16.0 mg/kg/injection, schedule: Q01DX009 (ip), vehicle: water 100 % of control and 115 % of control | dose: 20.0 mg/kg/injection, schedule: Q01DX009 (ip), vehicle: water 101 % of control | dose: 32.0 mg/kg/injection, schedule: Q01DX009 (ip), vehicle: water 109 % of control | dose: 50.0 mg/kg/injection, schedule: Q04DX003 (ip), vehicle: water 100 % of control | dose: 100.0 mg/kg/injection, schedule: Q04DX003 (ip), vehicle: water 106 % of control | dose: 200.0 mg/kg/injection, schedule: Q04DX003 (ip), vehicle: water 97 % of control | dose: 400.0 mg/kg/injection, schedule: Q04DX003 (ip), vehicle: water 92 % of control

CNC(=S)NC1C2CC3CC(C2)CC1C3 (stereo not given)
inactive: [3] 94 % of control | [4] 94 % of control | [5] 94 % of control

COc1cc2cc(c1Cl)NC(=O)CC(OC(=O)C(C)N(C)C(=O)C1(C)CC1C)C1(C)OC1C(C)C1CC(O)(NC(=O)O1)C(OC)C=C/C=C(\C)C2 (stereo not given)
inactive: dose: 0.1 micrograms/kg/injection, schedule: Q01DX009 (ip), vehicle: saline + alcohol 115 % of control | dose: 25.0 micrograms/kg/injection, schedule: Q01DX009 (ip), vehicle: saline + alcohol 87 % of control and 90 % of control
active: dose: 0.2 micrograms/kg/injection, schedule: Q01DX009 (ip), vehicle: saline + alcohol 165 % of control | dose: 0.4 micrograms/kg/injection, schedule: Q01DX009 (ip), vehicle: saline + alcohol 165 % of control | dose: 0.8 micrograms/kg/injection, schedule: Q01DX009 (ip), vehicle: saline + alcohol 155 % of control | dose: 1.6 micrograms/kg/injection, schedule: Q01DX009 (ip), vehicle: saline + alcohol 167 % of control and 175 % of control | dose: 3.1 micrograms/kg/injection, schedule: Q01DX009 (ip), vehicle: saline + alcohol 184 % of control and 190 % of control | dose: 6.2 micrograms/kg/injection, schedule: Q01DX009 (ip), vehicle: saline + alcohol 233 % of control and 300 % of control | dose: 12.5 micrograms/kg/injection, schedule: Q01DX009 (ip), vehicle: saline + alcohol 184 % of control and 200 % of control

CO[C@@H]1C=C[C@@]23c4cc5c(cc4CN(C[C@@H]2O)[C@H]3C1)OCO5
inactive: dose: 18.75 mg/kg/injection, schedule: Q01DX010 (ip), vehicle: saline 104 % of control | dose: 37.5 mg/kg/injection, schedule: Q01DX010 (ip), vehicle: saline 104 % of control

CC1CCCC(NC(=O)N(CCCl)N=O)C1 (stereo not given)
active: dose: 16.5 mg/kg/injection, schedule: Q04DX003 (ip), vehicle: saline with Tween-80 240 % of control | dose: 25.0 mg/kg/injection, schedule: Q04DX003 (ip), vehicle: saline with Tween-80 259 % of control | dose: 37.5 mg/kg/injection, schedule: Q04DX003 (ip), vehicle: saline with Tween-80 272 % of control | [12] 177 % of control
inactive: dose: 0.25 mg/kg/injection, schedule: Q04DX003 (ip), vehicle: saline with Tween-80 115 % of control | dose: 0.5 mg/kg/injection, schedule: Q04DX003 (ip), vehicle: saline with Tween-80 100 % of control | dose: 1.0 mg/kg/injection, schedule: Q04DX003 (ip), vehicle: saline with Tween-80 95 % of control

COC1C(CO)OC(n2cnc3c(=S)nc(N)[nH]c32)C1O (stereo not given)
inactive: [12] 104 % of control | dose: 200.0 mg/kg/injection, schedule: Q04DX003 (ip), vehicle: saline with Tween-80 104 % of control | dose: 600.0 mg/kg/injection, schedule: Q04DX003 (ip), vehicle: saline with Tween-80 122 % of control

Cn1c(-c2ccccc2)c(C(=O)O)c(C(=O)O)c1-c1ccccc1
inactive: dose: 50.0 mg/kg/injection, schedule: Q01DX009 (ip), vehicle: Klucel (hydroxypropylcellulose) (HPC) 95 % of control | dose: 100.0 mg/kg/injection, schedule: Q01DX009 (ip), vehicle: Klucel (hydroxypropylcellulose) (HPC) 90 % of control | [11] 96 % of control

NNc1cccc(Cl)n1
inactive: [3] 103 % of control

CC#CCOCC1CN(C)C(=O)O1 (stereo not given)
inactive: [7] 95 % of control | [10] 100 % of control | [9] 100 % of control | dose: 100.0 mg/kg/injection, schedule: Q01DX009 (ip), vehicle: saline 109 % of control | dose: 200.0 mg/kg/injection, schedule: Q01DX009 (ip), vehicle: saline 95 % of control | [1] 91 % of control | [2] 87 % of control

Brc1ccc(C#Cc2ccccc2)cc1
inactive: dose: 100.0 mg/kg/injection, schedule: Q01DX001 (ip), vehicle: Klucel (hydroxypropylcellulose) (HPC) 104 % of control | dose: 200.0 mg/kg/injection, schedule: Q01DX001 (ip), vehicle: Klucel (hydroxypropylcellulose) (HPC) 108 % of control | dose: 400.0 mg/kg/injection, schedule: Q01DX001 (ip), vehicle: Klucel (hydroxypropylcellulose) (HPC) 108 % of control

CCCCCCCCCCCCCCSC(CC(=O)O)C(=O)NNC(N)=S (stereo not given)
inactive: dose: 87.5 mg/kg/injection, schedule: Q01DX009 (ip), vehicle: saline with Tween-80 101 % of control | dose: 175.0 mg/kg/injection, schedule: Q01DX009 (ip), vehicle: saline with Tween-80 101 % of control | dose: 350.0 mg/kg/injection, schedule: Q01DX009 (ip), vehicle: saline with Tween-80 113 % of control
